The record followed here is article PMC12951562, “SH2scan: Mapping SH2 Domain-Ligand Binding Selectivity for Inhibitors and Degraders” (Journal of Medicinal Chemistry, 2026).

Non-standard residues stand in square brackets, D forms with d. Residues, ends and D or L forms follow the SMILES beside them. pY = N[C@@H](Cc1ccc(OP(=O)(O)O)cc1)C(=O)O

Holding throughout (experiment): biochemical
Holding throughout (format): binding

One assay deals with T1, SH3BP2 (Homo sapiens, UniProt P78314).
T1 construct: made in house; host or cells: HEK293 (transient transfection), unpurified extract
T1 sequence (P78314 1-561): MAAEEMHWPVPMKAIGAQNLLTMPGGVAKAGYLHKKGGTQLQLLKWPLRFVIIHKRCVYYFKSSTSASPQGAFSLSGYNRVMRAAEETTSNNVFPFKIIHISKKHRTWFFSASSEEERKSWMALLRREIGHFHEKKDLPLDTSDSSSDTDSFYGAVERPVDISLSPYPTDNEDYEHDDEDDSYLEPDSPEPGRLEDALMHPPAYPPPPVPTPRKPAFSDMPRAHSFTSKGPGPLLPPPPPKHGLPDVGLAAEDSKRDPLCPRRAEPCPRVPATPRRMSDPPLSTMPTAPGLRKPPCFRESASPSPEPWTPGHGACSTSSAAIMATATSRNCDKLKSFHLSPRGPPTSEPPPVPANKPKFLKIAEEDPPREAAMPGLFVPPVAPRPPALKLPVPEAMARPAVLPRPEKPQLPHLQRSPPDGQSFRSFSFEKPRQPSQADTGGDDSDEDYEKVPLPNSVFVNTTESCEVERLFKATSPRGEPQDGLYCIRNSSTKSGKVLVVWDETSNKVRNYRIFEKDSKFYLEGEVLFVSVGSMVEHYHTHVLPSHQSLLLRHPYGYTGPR

The next assay deals with T2, SHC2 (Homo sapiens, UniProt P98077).
T2 construct: made in house; host or cells: HEK293 (transient transfection), unpurified extract
T2 sequence (P98077 1-582): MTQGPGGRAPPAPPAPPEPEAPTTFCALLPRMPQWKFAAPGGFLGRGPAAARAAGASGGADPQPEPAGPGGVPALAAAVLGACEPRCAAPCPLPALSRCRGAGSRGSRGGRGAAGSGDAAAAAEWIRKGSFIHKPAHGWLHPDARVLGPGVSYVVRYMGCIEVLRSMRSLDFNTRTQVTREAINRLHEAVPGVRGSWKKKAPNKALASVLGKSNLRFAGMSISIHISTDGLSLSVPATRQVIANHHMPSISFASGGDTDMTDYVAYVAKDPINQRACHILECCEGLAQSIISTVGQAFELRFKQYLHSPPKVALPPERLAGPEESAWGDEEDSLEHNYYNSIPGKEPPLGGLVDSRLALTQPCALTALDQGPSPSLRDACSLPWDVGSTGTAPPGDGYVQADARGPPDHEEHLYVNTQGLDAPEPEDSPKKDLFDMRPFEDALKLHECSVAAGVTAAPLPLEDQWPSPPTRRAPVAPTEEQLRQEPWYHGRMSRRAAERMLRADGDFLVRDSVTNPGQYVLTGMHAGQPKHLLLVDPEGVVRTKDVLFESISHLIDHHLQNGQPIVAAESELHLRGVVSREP

The target of another assay is T3, LYN (Homo sapiens, UniProt P07948).
T3 construct: the DNA-tagged SH2 domain concentrations used in this study were <0.1 nM; made in house; host or cells: HEK293 (transient transfection, unpurified extract)
T3 sequence (P07948 129-226 limits assumed): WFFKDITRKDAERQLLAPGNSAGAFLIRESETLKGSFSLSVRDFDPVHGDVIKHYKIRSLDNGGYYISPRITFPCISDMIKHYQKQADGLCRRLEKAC

Another assay has as its target T4, PLCG1(SH2dom.C-term.) (Homo sapiens, UniProt P19174).
T4 construct: SH2dom.C-term. denotes SH2 domain closest to C-terminus of protein; made in house; host or cells: HEK293 (transient transfection, unpurified extract)
T4 sequence (P19174 668-756 limits assumed): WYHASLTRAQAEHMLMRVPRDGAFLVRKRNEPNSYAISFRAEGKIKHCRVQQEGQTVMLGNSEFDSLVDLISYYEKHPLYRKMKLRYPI

Another assay has as its target T5, NCK1 (Homo sapiens, UniProt P16333).
T5 construct: the DNA-tagged SH2 domain concentrations used in this study were <0.1 nM; made in house; host or cells: HEK293 (transient transfection, unpurified extract)

In another assay the target is T6, DAPP1 (Homo sapiens, UniProt Q9UN19).
T6 construct: the DNA-tagged SH2 domain concentrations used in this study were <0.1 nM; made in house; host or cells: HEK293 (transient transfection; unpurified extract)
T6 sequence (Q9UN19 35-129 limits assumed): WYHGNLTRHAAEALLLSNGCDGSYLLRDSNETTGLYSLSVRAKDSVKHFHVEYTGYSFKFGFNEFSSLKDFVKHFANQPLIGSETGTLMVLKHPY

A further assay concerns the target T7, PLCG2(SH2dom.C-term.) (Homo sapiens, UniProt P16885).
T7 construct: SH2dom.C-term. denotes SH2 domain closest to C-terminus of protein; made in house; host or cells: HEK293 (transient transfection, unpurified extract)
T7 sequence (P16885 646-735 limits assumed): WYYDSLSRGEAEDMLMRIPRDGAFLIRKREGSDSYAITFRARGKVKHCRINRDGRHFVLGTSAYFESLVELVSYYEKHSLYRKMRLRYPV

For the next assay, the target named is T8, FRK (Homo sapiens, UniProt P42685).
T8 construct: the DNA-tagged SH2 domain concentrations used in this study were <0.1 nM; made in house; host or cells: HEK293 (transient transfection; unpurified extract)
T8 sequence (P42685 116-208 limits assumed): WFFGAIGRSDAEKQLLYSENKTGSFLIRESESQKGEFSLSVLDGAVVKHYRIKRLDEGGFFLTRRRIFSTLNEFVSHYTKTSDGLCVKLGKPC

In the next assay the target is T9, SOCS2 (Homo sapiens, UniProt O14508).
T9 construct: made in house; host or cells: HEK293 (transient transfection), unpurified extract
T9 sequence (O14508 1-198): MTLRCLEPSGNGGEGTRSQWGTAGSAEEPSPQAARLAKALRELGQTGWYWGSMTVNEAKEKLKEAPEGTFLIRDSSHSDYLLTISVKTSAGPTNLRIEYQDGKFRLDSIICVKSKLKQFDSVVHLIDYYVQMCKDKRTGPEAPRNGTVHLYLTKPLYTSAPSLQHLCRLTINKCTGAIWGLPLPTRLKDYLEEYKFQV

The next assay addresses T10, PIK3R3(SH2dom.C-term.) (Homo sapiens, UniProt Q92569).
T10 construct: SH2dom.C-term. denotes SH2 domain closest to C-terminus of protein; made in house; host or cells: HEK293 (transient transfection, unpurified extract)

Another assay addresses T11, GRB7 (Homo sapiens, UniProt Q14451).
T11 construct: the DNA-tagged SH2 domain concentrations used in this study were <0.1 nM; made in house; host or cells: HEK293 (transient transfection; unpurified extract)

For another assay, the target named is T12, LNK (SH2B3) (Homo sapiens, UniProt Q9UQQ2).
T12 construct: the DNA-tagged SH2 domain concentrations used in this study were <0.1 nM; made in house; host or cells: HEK293 (transient transfection, unpurified extract)
T12 sequence (Q9UQQ2 364-462 limits assumed): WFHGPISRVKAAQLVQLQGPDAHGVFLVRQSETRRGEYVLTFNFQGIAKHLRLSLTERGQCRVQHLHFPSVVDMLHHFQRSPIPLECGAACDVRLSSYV

Another assay has as its target T13, CRK (Homo sapiens, UniProt P46108).
T13 construct: the DNA-tagged SH2 domain concentrations used in this study were <0.1 nM; made in house; host or cells: HEK293 (transient transfection; unpurified extract)

A further assay has as its target T14, CBLC (Homo sapiens, UniProt Q9ULV8).
T14 construct: the DNA-tagged SH2 domain concentrations used in this study were <0.1 nM; made in house; host or cells: HEK293 (transient transfection; unpurified extract)
T14 sequence (Q9ULV8 219-321 limits assumed): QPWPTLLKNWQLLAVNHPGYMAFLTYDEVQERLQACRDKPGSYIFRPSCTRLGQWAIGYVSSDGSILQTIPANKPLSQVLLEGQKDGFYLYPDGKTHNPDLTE

[1] abbreviates: read-out: percent of DMSO vehicle control.

T11 sequence (Q14451 431-527 limits assumed): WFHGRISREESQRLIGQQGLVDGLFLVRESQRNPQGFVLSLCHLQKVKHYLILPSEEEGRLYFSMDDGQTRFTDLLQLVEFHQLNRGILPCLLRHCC
T13 sequence (P46108 13-118 limits assumed): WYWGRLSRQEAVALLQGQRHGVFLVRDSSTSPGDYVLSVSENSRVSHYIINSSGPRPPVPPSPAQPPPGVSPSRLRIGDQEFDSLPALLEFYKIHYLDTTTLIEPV

In general, Kd refers to the equilibrium constant for the complex coming apart. With `CC[C@H](C)[C@H](NC(=O)[C@H](CO)NC(=O)[C@H](CC(C)C)NC(=O)[C@H](CCCNC(=N)N)NC(=O)[C@H](CO)NC(=O)[C@H](CS)NC(C)=O)C(=O)N[C@@H](Cc1ccc(OP(=O)(O)O)cc1)C(=O)N[C@@H](CC(=O)O)C(=O)N[C@@H](CC(N)=O)C(=O)N[C@H](C(=O)N1CCC[C@H]1C(=O)NCC(N)=O)C(C)C` [Ac-CSRLSIpYDNVPG-NH2] (Ac-CSRLSI[pY]DNVPG-NH2), binding on SH3BP2 was characterised by a dissociation constant (Kd) of 0.209 ± 0.0101 µM.
Regarding `CC[C@H](C)[C@H](NC(=O)[C@H](CCC(=O)O)NC(=O)[C@H](CCC(=O)O)NC(=O)[C@H](Cc1ccc(OP(=O)(O)O)cc1)NC(C)=O)C(=O)N[C@@H](CCC(=O)O)C(N)=O` [Ac-pYEEIE-NH2] (Ac-[pY]EEIE-NH2), the “percent of DMSO vehicle control” value on SHC2 (primary screen, 10 μM) came to 138.0%; on LYN (primary screen, 10 μM), 38.1±2.4%; on PLCG1(SH2dom.C-term.) (primary screen, 10 μM), 37.9±3.6%; at NCK1 (primary screen, 10 μM) it was 90.1%; at DAPP1 (primary screen, 10 μM) it was 134.5%; at PLCG2(SH2dom.C-term.) (primary screen, 10 μM) it was 90.9%. For the same molecule, the “percent of DMSO vehicle control” value stood at 90.0±2.1% on SH3BP2 (primary screen, 10 μM); 82.5% on FRK (primary screen, 10 μM); 104.8% at SOCS2 (primary screen, 10 μM); 27.7±0.9% on PIK3R3(SH2dom.C-term.) (primary screen, 10 μM); 123.8% on GRB7 (primary screen, 10 μM); 72.0% on LNK (SH2B3) (primary screen, 10 μM). Also, the “percent of DMSO vehicle control” value at CRK (primary screen, 10 μM) is 114.0%; on CBLC (primary screen, 10 μM), 97.4±7.1%. Further, at PIK3R3(SH2dom.C-term.), the Kd was determined as 14.9 µM.
For `CC(=O)N[C@@H](Cc1ccc(CP(=O)(O)O)cc1)C(=O)NC1(C(=O)N[C@@H](CC(N)=O)C(=O)NCCCc2c(O)ccc3ccccc23)CCCCC1` [CGP78850], the remaining activity at 10 µM is 100 ± 8.5% at SHC2 (setting [1]); 40% on LYN (setting [1]); 96.8 ± 4.1% on PLCG1(SH2dom.C-term.) (setting [1]); 104 ± 4.8% on NCK1 (setting [1]); 104 ± 2.7% on PLCG2(SH2dom.C-term.) (setting [1]); 77.8 ± 0.5% at SH3BP2 (setting [1]). Also, the figures for the remaining activity at 10 µM on SOCS2 (setting [1]), at PIK3R3(SH2dom.C-term.) (setting [1]) and on LNK (SH2B3) (setting [1]) were 119 ± 4.7%, 0% and 79.1 ± 5.6%, respectively. Also, the percent of DMSO vehicle control at 10 µM at DAPP1 (setting [1]) worked out at 136 ± 2.8%; on FRK (setting [1]), 89.4 ± 19.2%; on GRB7 (setting [1]), 0%; at CRK (setting [1]), 88.3 ± 0.9%; on CBLC (setting [1]), 128 ± 29.6%. Also, the Kd at PIK3R3(SH2dom.C-term.) was found to be 0.048 µM; at GRB7 it was 0.0052 µM.
